From PubChem BioAssay AID256 (DTP/NCI, 2004)
“And” between values parts separate entries of the source, which are not always exact repeats. Equal values may be shown once. Toxic doses and inconclusive results are not listed. Rule for the calls: active = survival T/C of 150% or more; inactive = T/C below 125% in these data.

Test system: CD2F1 mice, L1210 leukemia ip, survival T/C
Test: NCI In Vivo Anticancer Drug Screen. Data for tumor model L1210 Leukemia (intraperitoneal) in CD2F1 (CDF1) mice
Conditions: higher = longer survival
Outline: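 Transplantable tumor in mice; compound-treated vs vehicle-treated groups. Read-out = treated/control ratio of the measured endpoint.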

[1] = endpoint: mean survival time, dose: 25.0 mg/kg/injection, schedule: Q01DX001 (ip), vehicle: saline with Tween-80
[2] = endpoint: mean survival time, dose: 50.0 mg/kg/injection, schedule: Q01DX001 (ip), vehicle: saline with Tween-80
[3] = endpoint: mean survival time, dose: 100.0 mg/kg/injection, schedule: Q04DX003 (ip), vehicle: saline
[4] = endpoint: mean survival time, dose: 200.0 mg/kg/injection, schedule: Q04DX003 (ip), vehicle: saline
[5] = endpoint: mean survival time, dose: 50.0 mg/kg/injection, schedule: Q01DX009 (ip), vehicle: saline with Tween-80
[6] = endpoint: mean survival time, dose: 100.0 mg/kg/injection, schedule: Q01DX009 (ip), vehicle: saline with Tween-80
[7] = endpoint: mean survival time, dose: 200.0 mg/kg/injection, schedule: Q01DX009 (ip), vehicle: saline with Tween-80
[8] = endpoint: mean survival time, dose: 25.0 mg/kg/injection, schedule: Q01DX009 (ip), vehicle: saline with Tween-80
[9] = endpoint: mean survival time, dose: 100.0 mg/kg/injection, schedule: Q04DX003 (ip), vehicle: saline with Tween-80
[10] = endpoint: mean survival time, dose: 200.0 mg/kg/injection, schedule: Q04DX003 (ip), vehicle: saline with Tween-80
[11] = endpoint: mean survival time, dose: 400.0 mg/kg/injection, schedule: Q01DX009 (ip), vehicle: saline with Tween-80
[12] = endpoint: mean survival time, dose: 400.0 mg/kg/injection, schedule: Q04DX003 (ip), vehicle: saline with Tween-80
[13] = endpoint: mean survival time, dose: 100.0 mg/kg/injection, schedule: Q01DX001 (ip), vehicle: saline
[14] = endpoint: mean survival time, dose: 200.0 mg/kg/injection, schedule: Q01DX001 (ip), vehicle: saline

Measured: T/C

CN(C)N=Nc1ccccc1C(=O)NCC(F)(F)F
inactive: endpoint: mean survival time, dose: 18.75 mg/kg/injection, schedule: Q01DX009 (ip), vehicle: Klucel (hydroxypropylcellulose) (HPC) 96 % of control and 106 % of control | endpoint: mean survival time, dose: 37.5 mg/kg/injection, schedule: Q01DX009 (ip), vehicle: Klucel (hydroxypropylcellulose) (HPC) 93 % of control and 106 % of control | endpoint: mean survival time, dose: 75.0 mg/kg/injection, schedule: Q01DX009 (ip), vehicle: Klucel (hydroxypropylcellulose) (HPC) 96 % of control and 100 % of control | endpoint: mean survival time, dose: 150.0 mg/kg/injection, schedule: Q01DX009 (ip), vehicle: Klucel (hydroxypropylcellulose) (HPC) 100 % of control and 102 % of control | endpoint: mean survival time, dose: 300.0 mg/kg/injection, schedule: Q01DX009 (ip), vehicle: Klucel (hydroxypropylcellulose) (HPC) 100 % of control and 103 % of control

O=C(CC(Cl)(C(F)(F)F)C(F)(F)F)c1cccc([N+](=O)[O-])c1
inactive: endpoint: mean survival time, dose: 12.5 mg/kg/injection, schedule: Q01DX001 (ip), vehicle: saline with Tween-80 103 % of control | [1] 100 % of control | [2] 97 % of control and 105 % of control

C[n+]1cccc(C(=O)N/N=C/c2ccco2)c1
inactive: [3] 105 % of control | [4] 98 % of control | endpoint: mean survival time, dose: 400.0 mg/kg/injection, schedule: Q04DX003 (ip), vehicle: saline 104 % of control

C(=C/C1CCCCC1)/C=C/C1CCCCC1
inactive: [5] 103 % of control | [6] 92 % of control | [7] 107 % of control

CC(C)C(C)CCC(C)C1CCC2C3CC=C4CC(O)CCC4(C)C3CCC12C (stereo not drawn)
inactive: [1] 91 % of control | [2] 94 % of control | endpoint: mean survival time, dose: 100.0 mg/kg/injection, schedule: Q01DX001 (ip), vehicle: saline with Tween-80 97 % of control

C=CC(=O)NCNC(=O)C=C
inactive: endpoint: mean survival time, dose: 6.25 mg/kg/injection, schedule: Q01DX009 (ip), vehicle: saline 97 % of control | endpoint: mean survival time, dose: 12.5 mg/kg/injection, schedule: Q01DX009 (ip), vehicle: saline 101 % of control and 102 % of control | [8] 117 % of control | endpoint: mean survival time, dose: 25.0 mg/kg/injection, schedule: Q01DX009 (ip), vehicle: saline 97 % of control and 102 % of control | [5] 114 % of control | endpoint: mean survival time, dose: 50.0 mg/kg/injection, schedule: Q01DX009 (ip), vehicle: saline 117 % of control and 104 % of control | endpoint: mean survival time, dose: 100.0 mg/kg/injection, schedule: Q01DX009 (ip), vehicle: saline 117 % of control and 98 % of control | endpoint: mean survival time, dose: 200.0 mg/kg/injection, schedule: Q01DX009 (ip), vehicle: saline 96 % of control

O=c1cc(C(F)(F)F)[nH]c2ccc(Br)cc12
inactive: endpoint: mean survival time, dose: 12.5 mg/kg/injection, schedule: Q04DX003 (ip), vehicle: saline with Tween-80 97 % of control | endpoint: mean survival time, dose: 25.0 mg/kg/injection, schedule: Q04DX003 (ip), vehicle: saline with Tween-80 95 % of control | endpoint: mean survival time, dose: 50.0 mg/kg/injection, schedule: Q04DX003 (ip), vehicle: saline with Tween-80 97 % of control

NC(=S)N/N=C/c1nccn1-c1cccc([N+](=O)[O-])c1
inactive: endpoint: mean survival time, dose: 25.0 mg/kg/injection, schedule: Q04DX002 (ip), vehicle: Klucel (hydroxypropylcellulose) (HPC) 101 % of control | endpoint: mean survival time, dose: 50.0 mg/kg/injection, schedule: Q04DX002 (ip), vehicle: Klucel (hydroxypropylcellulose) (HPC) 96 % of control | endpoint: mean survival time, dose: 100.0 mg/kg/injection, schedule: Q04DX002 (ip), vehicle: Klucel (hydroxypropylcellulose) (HPC) 104 % of control

COP(=O)(OC)OCC1OC(n2ccc(N)nc2=O)C(O)C1O (stereo not drawn)
inactive: endpoint: median survival time, dose: 12.5 mg/kg/injection, schedule: Q01DX005 (ip), vehicle: saline 111 % of control | endpoint: median survival time, dose: 25.0 mg/kg/injection, schedule: Q01DX005 (ip), vehicle: saline 104 % of control | endpoint: median survival time, dose: 50.0 mg/kg/injection, schedule: Q01DX005 (ip), vehicle: saline 110 % of control | endpoint: median survival time, dose: 100.0 mg/kg/injection, schedule: Q01DX005 (ip), vehicle: saline 115 % of control and 108 % of control | endpoint: median survival time, dose: 200.0 mg/kg/injection, schedule: Q01DX005 (ip), vehicle: saline 113 % of control

O=C1CC(C(=O)O)C2(CCCCCC2)O1 (stereo not drawn)
inactive: endpoint: median survival time, dose: 12.5 mg/kg/injection, schedule: Q04DX003 (ip), vehicle: saline with Tween-80 90 % of control | endpoint: median survival time, dose: 25.0 mg/kg/injection, schedule: Q04DX003 (ip), vehicle: saline with Tween-80 90 % of control | endpoint: median survival time, dose: 50.0 mg/kg/injection, schedule: Q04DX003 (ip), vehicle: saline with Tween-80 100 % of control

CC(C)(C)CC(C)(C)c1ccc(Oc2ccc([N+](=O)[O-])cc2S(=O)(=O)O)cc1
inactive: endpoint: mean survival time, dose: 6.25 mg/kg/injection, schedule: Q04DX002 (ip), vehicle: saline with Tween-80 96 % of control | endpoint: mean survival time, dose: 12.5 mg/kg/injection, schedule: Q04DX002 (ip), vehicle: saline with Tween-80 114 % of control | endpoint: mean survival time, dose: 25.0 mg/kg/injection, schedule: Q04DX002 (ip), vehicle: saline with Tween-80 87 % of control and 93 % of control

CC1(CO)C(O)CCC2(C)C1CCC1CC3CC12CCC3(O)CO (stereo not drawn)
inactive: endpoint: mean survival time, dose: 6.25 mg/kg/injection, schedule: Q01DX009 (ip), vehicle: saline with Tween-80 119 % of control and 102 % of control | endpoint: mean survival time, dose: 12.5 mg/kg/injection, schedule: Q01DX009 (ip), vehicle: saline with Tween-80 106 % of control and 109 % of control | [8] 110 % of control and 111 % of control | [5] 118 % of control and 111 % of control | [6] 121 % of control and 122 % of control | [7] 114 % of control and 102 % of control

Clc1ccc(C2(c3ccncc3)OCCO2)cc1
inactive: [3] 101 % of control | [4] 101 % of control

CN(C)C(=S)NN
inactive: endpoint: mean survival time, dose: 1.5 mg/kg/injection, schedule: Q01DX001 (ip), vehicle: saline 92 % of control | endpoint: mean survival time, dose: 3.0 mg/kg/injection, schedule: Q01DX001 (ip), vehicle: saline 97 % of control | endpoint: mean survival time, dose: 6.0 mg/kg/injection, schedule: Q01DX001 (ip), vehicle: saline 97 % of control

Cc1cccc(NC(=O)c2cccc(Cl)c2)c1C
inactive: [6] 91 % of control | [9] 96 % of control | [7] 96 % of control | [10] 96 % of control | [11] 91 % of control | [12] 96 % of control

CC(=O)CCc1ccc(O)cc1
inactive: [6] 94 % of control | [9] 97 % of control | [7] 93 % of control | [10] 92 % of control | [11] 94 % of control | [12] 92 % of control

N=c1c2ncn(C3OC(CO)C(O)C3O)c2ncn1N (stereo not drawn)
inactive: endpoint: mean survival time, dose: 50.0 mg/kg/injection, schedule: Q01DX005 (ip), vehicle: water 101 % of control | endpoint: mean survival time, dose: 100.0 mg/kg/injection, schedule: Q01DX005 (ip), vehicle: water 101 % of control | endpoint: mean survival time, dose: 200.0 mg/kg/injection, schedule: Q01DX005 (ip), vehicle: water 114 % of control

O=C(O)c1cc(N=Nc2ccc3ccccc3c2)ccc1O
inactive: [6] 103 % of control | [7] 106 % of control | [11] 98 % of control

O=P(=O)OP(=O)=O.[O]=[W](=[O])=[O]
inactive: [6] 92 % of control | [9] 100 % of control | [10] 100 % of control | [12] 102 % of control

O=P(OCCCCCl)(OCCCCCl)C(Cl)Cl
inactive: [13] 100 % of control | [14] 100 % of control | endpoint: mean survival time, dose: 400.0 mg/kg/injection, schedule: Q01DX001 (ip), vehicle: saline 108 % of control

CC(=O)OC1CCC2(C)C(CC=C3C2CCC2(C)C3CCC2C(C)CCCC(C)C)C1 (stereo not drawn)
inactive: [6] 89 % of control | [7] 89 % of control | [11] 91 % of control

CCCCOC(=O)CCl
inactive: [13] 100 % of control | [14] 94 % of control

O=C(CCOP(=O)(N1CC1)N1CC1)OCc1ccccc1
inactive: endpoint: mean survival time, dose: 2.0 mg/kg/injection, schedule: Q01DX009 (ip), vehicle: water 101 % of control | endpoint: mean survival time, dose: 3.9 mg/kg/injection, schedule: Q01DX001 (ip), vehicle: Klucel (hydroxypropylcellulose) (HPC) 89 % of control | endpoint: mean survival time, dose: 4.0 mg/kg/injection, schedule: Q01DX009 (ip), vehicle: water 98 % of control | endpoint: mean survival time, dose: 7.8 mg/kg/injection, schedule: Q01DX001 (ip), vehicle: Klucel (hydroxypropylcellulose) (HPC) 102 % of control | endpoint: mean survival time, dose: 8.0 mg/kg/injection, schedule: Q01DX009 (ip), vehicle: water 104 % of control | endpoint: mean survival time, dose: 15.6 mg/kg/injection, schedule: Q01DX001 (ip), vehicle: Klucel (hydroxypropylcellulose) (HPC) 98 % of control | endpoint: mean survival time, dose: 16.0 mg/kg/injection, schedule: Q01DX009 (ip), vehicle: water 106 % of control | endpoint: mean survival time, dose: 31.2 mg/kg/injection, schedule: Q01DX001 (ip), vehicle: Klucel (hydroxypropylcellulose) (HPC) 88 % of control | endpoint: mean survival time, dose: 32.0 mg/kg/injection, schedule: Q01DX009 (ip), vehicle: water 118 % of control

O=C1NCCC/C1=N/Nc1ccccc1
inactive: endpoint: mean survival time, dose: 50.0 mg/kg/injection, schedule: Q04DX002 (ip), vehicle: saline with Tween-80 100 % of control | [6] 96 % of control | endpoint: mean survival time, dose: 100.0 mg/kg/injection, schedule: Q04DX002 (ip), vehicle: saline with Tween-80 108 % of control | [7] 96 % of control | endpoint: mean survival time, dose: 200.0 mg/kg/injection, schedule: Q04DX002 (ip), vehicle: saline with Tween-80 112 % of control | [11] 91 % of control
